Assay results from US6403581B1, “Method of inhibition of farnesyl-protein transferase using substituted benz (cd) indol-2-imine and-amine derivatives” (American Cyanamid Company, priority 2000, dated 2002).
pIC50: −log10 of the molar value. Where a name gives a salt, the structure may show the parent alone.

Experiments:
[1] = target: T1, farnesyl-protein transferase (FPTase) (Homo sapiens, UniProt P49354+P49356); test: in vitro FPTase inhibition, H-Ras as substrate for farnesylation; type: biochemical; conditions: H-Ras used as substrate for farnesylation
Procedure: (§1) Enzyme test procedure: The FPTase inhibition in vitro assay was performed according to the method as described by James, G. L., Brown, M. S., and Goldstein, J. L., Methods in Enzymology, 1995, 255, 38-46; and Garcia, M. A., et al., J. Biol. Chem., 1993, 268, 18415-18420.
(§2) Materials—Purified FPTase (Moomaw, J. F. and Casey, P. J., J. Biol. Chem., 1992, 267, 17438-17443), purified His6-Ras, inhibitor compounds at 10 mg/ml or 10 mM in 100% DMSO, ^3H-FPP (50,000 dpm/pmol) Amersham, TCA/SDS (6%/2%), TCA (6%), Glass fiber filters ([…]), vacuum manifold or 96 well filtration plates.
(§3) Methods—1. Dilute FPTase inhibitors from stock solutions to 2.5× in 2.5% DMSO, 10 mM DTT, 0.5% octyl-B-glucoside. 2. Solution #1 is added to FPTase reaction in a volume of […]. 3. Standard reaction mix, […], contains 50 mM Tris (7.5),[…], 3 mM MgCl2, 20 mM KCl, 5 mM DTT, 0.2% octyl-B-glucoside, 1% DMSO, […], 10 ng FPTase, and various concentrations of FPTase inhibitors. 4. Incubate for 30-90 min at 25° C. 5. Stop reactions with TCA/SDS (6%/2%), hold at 4° C. for 45-60 min. 6. Filter by manifold or 96 well plate, wash filter 3-5× with TCA (6%). 7. Add scintillant to filters, measure ^3H-FPP incorporation into Ras protein.
(§4) Analysis of Results—Percent inhibition by test compounds is determined by the following:
(§5) (cpm from precipitated Ras with test compounds)−(background cpm)×100=% inhibition.
(§6) (cpm from precipitated Ras without test compounds)−(background cpm)

[2] = target: T1, farnesyl-protein transferase (FPTase); test: in vitro FPTase inhibition, K-Ras as substrate for farnesylation; type: biochemical; conditions: K-Ras used as substrate for farnesylation
Procedure: as §1, §2, §3, §4, §5, §6

`Ic1ccc2c3c(cccc13)C(NCCCCn1ccnc1)=N2` [Example 2, N-[4-(1H-Imidazol-1-yl)-butyl]-6-iodo-benz[cd]indol-2-amine] showed a pIC50 [1] of 5.17.
In the case of `c1ccc(CN2C(=NCCCCn3ccnc3)c3cccc4cccc2c34)cc1` [Example 4, N-[1-(Phenylmethyl)benz[cd]indol-2(1H)-ylidene]-1H-imidazole-1-butanamine, Fumarate (1:2)], the pIC50 [1] was 5.55 and the pIC50 [2] was < 5.00.
In the case of `CCCCCCN1C(=NCCCn2ccnc2)c2cccc3cccc1c23` [Example 7, N-(1-Hexylbenz[cd]indol-2(1H)-ylidene)-1H-imidazole-1-propanamine, Fumarate (1:2)], the pIC50 [1] was 5.74 and the pIC50 [2] was < 5.00.
With `Clc1ccc(CN2C(=NCCCn3ccnc3)c3cccc4c(I)ccc2c34)cc1` [Example 20, N-(1-(4-Chlorobenzyl)-6-iodobenzo[cd]indol-2-(1H)-ylidene)-3-(1H-imidazol-1-yl)-1-propanamine] the pIC50 [1] was 6.05.
With `Clc1ccc2c3c(cccc13)C(=NCCCn1ccnc1)N2Cc1ccccc1` [Example 18, N-[6-Chloro-1-(phenyl-methyl)benz[cd]indol-2(1H)-ylidene]-1H-imidazole-1-propanamine] the pIC50 [1] was 6.10 and the pIC50 [2] was < 5.00.
In the case of `c1cc2c3c(cccc3c1)C(N1CCC(Cn3ccnc3)CC1)=N2` [Example 17, 2-[4-(1H-Imidazol-1-ylmethyl)-1-piperidinyl]-benz[cd]indole, Monohydriodide], the pIC50 [1] was 5.70 and the pIC50 [2] was < 5.00.
Work on `N#CCCCCN1C(=NCCCn2ccnc2)c2cccc3cccc1c23` [Example 5, 2-[[3-(1H-Imidazol-1-yl)propyl]imino]-benz[cd]indole-1(2H)-pentanenitrile] yielded a pIC50 [1] of 6.49 and a pIC50 [2] of 5.32.
Work on `CCCCCCCCN(CCCn1ccnc1)C1=Nc2cccc3cccc1c23` [Example 1, N-[3-(1H-Imidazol-1-yl)-propyl]-N-octyl-benz[cd]indol-2-amine, Fumarate (1:2)] yielded a pIC50 [1] of 5.92 and a pIC50 [2] of 5.10.
`c1ccc(CCCN2C(=NCCCn3ccnc3)c3cccc4cccc2c34)cc1` [Example 11, N-[1-(3-Phenylpropyl)benz[cd]indol-2(1H)-ylidene]-1H-imidazole-1-propanamine, Fumarate (1:2)] gave a pIC50 [1] of 6.22 and a pIC50 [2] of 5.02.
`Clc1ccc(CN2C(=NCCCn3ccnc3)c3cccc4cccc2c34)cc1` [Example 15, N-[1-[(4-Chlorophenyl)methyl]benz[cd]indol-2(1H)-ylidene]-1H-imidazole-1-propanamine] gave a pIC50 [1] of 6.74.
`c1ccc(OCCCN2C(=NCCCn3ccnc3)c3cccc4cccc2c34)cc1` [Example 12, N-[1-(3-Phenoxypropyl)benz[cd]indol-2-(1H)-ylidene]-1H-imidazole-1-propanamine, Dihydrochloride] gave a pIC50 [1] of 5.82.
With `FC(F)(F)c1cccc(CN2C(=NCCCn3ccnc3)c3cccc4cccc2c34)c1` [Example 14, N-[1-[[3-(Trifluoromethyl)phenyl]methyl]benz[cd]indol-2(1H)-ylidene]-1H-imidazole-1-propanamine] the pIC50 [1] was 6.70 and the pIC50 [2] was 5.07.
In the case of `c1ccc(CN2C(=NCCCn3ccnc3)c3cccc4cccc2c34)cc1` [Example 10, N-[1-(Phenylmethyl)benz[cd]indol-2(1H)-ylidene]-1H-imidazole-1-propanamine, Fumarate (1:2)], the pIC50 [1] was 6.19.
For `c1cncc(CN2C(=NCCCn3ccnc3)c3cccc4cccc2c34)c1` [Example 9, N-[1-(3-Pyridinylmethyl)benz[cd]indol-2(1H)-ylidene]-1H-imidazole-1-propanamine], the pIC50 [1] was 5.70 and the pIC50 [2] was < 5.00.
For “N-(1-Hexylbenz[cd]indol-2(1H)-ylidene)-3-pyridinebutanamine, Fumarate (2:3) [Example 8]”, the pIC50 [1] was 5.62 and the pIC50 [2] was < 5.00.
For `c1cc2c3c(cccc3c1)N(CCCN1C(=NCCCn3ccnc3)c3cccc4cccc1c34)C2=NCCCn1ccnc1` [Example 6, N,N′-[1,3-Propanediylbis(benz[cd]indol-1(2H)-yl-2-ylidene)]bis-1H-imidazole-1-propanamine], the pIC50 [1] was 5.65 and the pIC50 [2] was < 5.00.
In the case of `Clc1ccc2c3c(cccc13)C(=NCCc1cccnc1)N2Cc1ccccc1` [Example 19, N-[6-Chloro-1-(phenylmethyl)benz[cd]indol-2(1H)-ylidene]-3-pyridinethanamine], the pIC50 [1] was 7.00 and the pIC50 [2] was < 5.00.
With `c1ccc(N2C(=NCCCn3ccnc3)c3cccc4cccc2c34)cc1` [Example 16, N-(1-Phenylbenz[cd]indol-2(1H)-ylidene)-1H-imidazole-1-propanamine] the pIC50 [1] was 5.60 and the pIC50 [2] was < 5.00.
For `COc1cccc(CN2C(=NCCCn3ccnc3)c3cccc4cccc2c34)c1` [Example 13, N-[1-[(3-Methoxyphenyl)methyl]benz[cd]indol-2(1H)-ylidene]-1H-imidazole-1-propanamine], the pIC50 [1] was 6.40 and the pIC50 [2] was < 5.00.
Work on `Ic1ccc2c3c(cccc13)C(=NCCCn1ccnc1)N2` [Example 21, 3-(1H-Imidazol-1-yl)-N-(6-iodobenzo[cd]indol-2(1H)-ylidene)-1-propanamine] yielded a melting point of 185 to 188 °C.
`Ic1ccc2c3c(cccc13)C(=NCc1ccccc1)N2` [Example 22, N-Benzyl-N-(6-iodobenzo[cd]indol-2(1H)-ylidene)amine] showed a melting point of 160 to 163 °C.
In the case of `CN1C(=NCCCn2ccnc2)c2cccc3c(CO)ccc1c23` [Example 3, 1,2-Dihydro-2-[[3-(1H-imidazol-1-yl)propyl]imino]-1-methyl-benz[cd]indole-6-methanol, Fumarate (1:1)], the pIC50 [1] was 5.60 and the pIC50 [2] was < 5.00.
